Measured values published in patent US20240300927A1, “AMIDES AS CBL-B INHIBITORS” (Genentech, Inc., priority 2021, published 2024).

Key:
c-Cbl = c-Cbl (Homo sapiens (Human), UniProt P22681); assay: C-cbl LCK Ub TR-FRET assay (C-cbl Lck HTRF); type: biochemical
Method: (§1) Compounds were 3-fold serially diluted in DMSO in a 384-well polypropylene plate (#P-05525-BC; Labcyte) to generate a source plate with 10 concentrations of each compound, top concentration=2 mM. 80 nL of DMSO or compounds were transferred to each well of a black 384-well ProxiPlate (#6008260; PerkinElmer) using a Labcyte Echo. 1× assay buffer (50 mM HEPES pH7.0, 100 mM NaCl, 0.01% BSA, 0.01% Triton-X100, 1 mM DTT), 2× enzyme solution (16 nM Biotin-Cbl-b or 12 nM Biotin-c-Cbl in 1× assay buffer), 2× kinase mixture (120 nM His-LCK, 1 mM ATP, 10 mM MgCl2 in assay buffer) and 2.33× detection mixture (4.66× solution 1: 163 nM Anti-HA-D2 antibody (#610HADAB; PerkinElmer), 27.96 nM Streptavidin-EU (#AD0062; PerkinElmer), 1.398 mM EDTA in 1× assay buffer+4.66× solution 2: 2.796 μM UBE2D2/Methylated-HA-Ubiquitin thioester adduct (BostonBiochem) in 1× assay buffer) were prepared. 4 μL of 2× enzyme solution was added to each well containing compound, briefly centrifuged to mix, and incubated for 60 min at room temperature. 4 μL of 2× kinase mixture was added, briefly centrifuged to mix, and incubated for 90 min. at room temperature. 6 μL of detection mixture was added to all wells and briefly centrifuged before incubating for 20 min at room temperature. Plates were read for TR-FRET using an Envision at excitation 340 nm, emission at 615 and 665 nm, 4 flashes per well. IC50 was generated using no LCK as the low control and DMSO as the high control.
(§2) Cbl-b Lck HTRF data in Table 3 is measured according to Example 25 herein; C-cbl Lck HTRF data is measured according to Example 25 herein.
(§3) SPR and the LCK biochemical assay are orthogonal assays: SPR is a protein binding assay while the LCK assay is an enzyme activity assay. SPR measures compound binding affinity to CBL-B/C-CBL, whereas LCK assay measures compound inhibition of CBL-B/C-CBL ubiquitin transfer activity.

Cbl-b = Cbl-b (Homo sapiens (Human), UniProt Q13191); assay: Cbl-b LCK Ub TR-FRET assay (Cbl-b Lck HTRF); type: biochemical; conditions: for (fold-selectivity): Cbl-b and C-Cbl selectivity, Lck HTRF; for IC50: read-out: Cbl-b Lck HTRF IC50
Sequence of Cbl-b (Q13191 40-426): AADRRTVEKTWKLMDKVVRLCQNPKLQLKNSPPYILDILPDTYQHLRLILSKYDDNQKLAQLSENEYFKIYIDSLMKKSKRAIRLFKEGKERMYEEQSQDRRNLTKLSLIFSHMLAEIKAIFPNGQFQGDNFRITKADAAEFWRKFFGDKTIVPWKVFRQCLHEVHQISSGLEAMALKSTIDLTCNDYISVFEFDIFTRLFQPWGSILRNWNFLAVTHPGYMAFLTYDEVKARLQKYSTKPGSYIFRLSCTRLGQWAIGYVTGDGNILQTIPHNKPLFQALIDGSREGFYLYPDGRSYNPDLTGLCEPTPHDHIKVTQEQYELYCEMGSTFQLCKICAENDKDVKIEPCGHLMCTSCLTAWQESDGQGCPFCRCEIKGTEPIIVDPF
Method: as §1, §2, §3

Sequence of c-Cbl (P22681 47-435): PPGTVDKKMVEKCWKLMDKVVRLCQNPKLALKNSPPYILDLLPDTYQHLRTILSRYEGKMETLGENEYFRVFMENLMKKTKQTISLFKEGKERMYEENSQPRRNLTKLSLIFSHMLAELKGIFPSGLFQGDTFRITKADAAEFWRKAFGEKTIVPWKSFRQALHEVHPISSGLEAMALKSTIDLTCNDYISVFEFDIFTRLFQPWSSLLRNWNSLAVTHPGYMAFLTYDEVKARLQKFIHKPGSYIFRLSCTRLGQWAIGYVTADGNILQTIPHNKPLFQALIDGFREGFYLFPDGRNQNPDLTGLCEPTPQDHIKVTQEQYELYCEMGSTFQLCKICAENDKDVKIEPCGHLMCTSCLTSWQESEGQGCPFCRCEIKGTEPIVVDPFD

Row | Structure (SMILES) | IC50 (c-Cbl) [nM] | (fold-selectivity) (Cbl-b) | IC50 (Cbl-b) [nM]
1 | CN(C)Cc1cc(C(=O)Nc2cccc(C3(Cc4nncn4C)COC3)c2)nc(C(F)(F)F)c1 [Compound 67, 4-((dimethylamino)methyl)-N-(3-(3-((4-methyl-4H-1,2,4-triazol-3-yl)methyl)oxetan-3-yl)phenyl)-6-(trifluoromethyl)picolinamide] | 340 | (1.6x) | 210
2 | Cn1cnnc1CC1(c2cccc(NC(=O)c3cc(CN4CCC5(CC5)C4)cc(C(F)(F)F)n3)c2)COC1 [Compound 98, 4-((5-azaspiro[2.4]heptan-5-yl)methyl)-N-(3-(3-((4-methyl-4H-1,2,4-triazol-3-yl)methyl)oxetan-3-yl)phenyl)-6-(trifluoromethyl)picolinamide] | 78 | (1.8x) | 44
3 | C[C@@H](c1cc(C(=O)Nc2cccc(C3([C@@H](F)c4nncn4C)COC3)c2)nc(C2CC2)c1)N1CC(C)(F)C1 [Compound 112, 6-cyclopropyl-N-(3-(3-((R)-fluoro(4-methyl-4H-1,2,4-triazol-3-yl)methyl)oxetan-3-yl)phenyl)-4-((S)-1-(3-fluoro-3-methylazetidin-1-yl)ethyl)picolinamide] | 210 | (0.94x) | 230
4 | C[C@H](c1cc(C(=O)Nc2cccc(C3([C@@H](F)c4nncn4C)COC3)c2)nc(C2CC2)c1)N1CC(C)(F)C1 [Compound 113, 6-cyclopropyl-N-(3-(3-((R)-fluoro(4-methyl-4H-1,2,4-triazol-3-yl)methyl)oxetan-3-yl)phenyl)-4-((R)-1-(3-fluoro-3-methylazetidin-1-yl)ethyl)picolinamide] | 27 | (1.2x) | 21
5 | C[C@@H](c1cc(C(=O)Nc2cccc(C3([C@H](F)c4nncn4C)COC3)c2)nc(C2CC2)c1)N1CC(C)(F)C1 [Compound 114, 6-cyclopropyl-N-(3-(3-((S)-fluoro(4-methyl-4H-1,2,4-triazol-3-yl)methyl)oxetan-3-yl)phenyl)-4-((S)-1-(3-fluoro-3-methylazetidin-1-yl)ethyl)picolinamide] | 220 | (0.76x) | 290
6 | C[C@H](c1cc(C(=O)Nc2cccc(C3([C@H](F)c4nncn4C)COC3)c2)nc(C2CC2)c1)N1CC(C)(F)C1 [Compound 115, 6-cyclopropyl-N-(3-(3-((S)-fluoro(4-methyl-4H-1,2,4-triazol-3-yl)methyl)oxetan-3-yl)phenyl)-4-((R)-1-(3-fluoro-3-methylazetidin-1-yl)ethyl)picolinamide] | 56 | (1.1x) | 50
7 | C[C@H](Cc1nncn1C)c1cccc(NC(=O)c2nc(C(F)(F)F)cn2C)c1 [Compound 121, (R)-1-methyl-N-(3-(1-(4-methyl-4H-1,2,4-triazol-3-yl)propan-2-yl)phenyl)-4-(trifluoromethyl)-1H-imidazole-2-carboxamide] | 2900 | (0.67x) | 4400
8 | C[C@H](Cc1nncn1C)c1cccc(NC(=O)c2nc(C3CC3)c[nH]2)c1 [Compound 122, (R)-4-cyclopropyl-N-(3-(1-(4-methyl-4H-1,2,4-triazol-3-yl)propan-2-yl)phenyl)-1H-imidazole-2-carboxamide] | 2200 | (0.79x) | 2800
9 | Cn1cnnc1CC1(c2cccc(NC(=O)c3nc(C(F)(F)F)c[nH]3)c2)COC1 [Compound 123, N-(3-(3-((4-methyl-4H-1,2,4-triazol-3-yl)methyl)oxetan-3-yl)phenyl)-4-(trifluoromethyl)-1H-imidazole-2-carboxamide] | 1800 | (0.77x) | 2300
10 | Cn1cnnc1C(F)C1(c2cccc(NC(=O)c3nc(C(F)(F)F)c[nH]3)c2)COC1 (stereo not drawn) [Compound 124, N-(3-(3-(fluoro(4-methyl-4H-1,2,4-triazol-3-yl)methyl)oxetan-3-yl)phenyl)-4-(trifluoromethyl)-1H-imidazole-2-carboxamide] | 3900 | (1.1x) | 3700
11 | CC(C)[C@H]1CN(C)CCN1Cc1cc(C(=O)Nc2cccc(C3([C@H](F)c4nncn4C)CC(F)(F)C3)c2)nc(C2CC2)c1 [Compound 223, 6-cyclopropyl-N-(3-(3,3-difluoro-1-((S)-fluoro(4-methyl-4H-1,2,4-triazol-3-yl)methyl)cyclobutyl)phenyl)-4-(((S)-2-isopropyl-4-methylpiperazin-1-yl)methyl)picolinamide] | 11 | (1.0x) | 11
12 | CC(C)[C@H]1CN(C)CCN1Cc1cc(C(=O)Nc2cccc(C3([C@@H](F)c4nncn4C)CC(F)(F)C3)c2)nc(C2CC2)c1 [Compound 225, 6-cyclopropyl-N-(3-(3,3-difluoro-1-((R)-fluoro(4-methyl-4H-1,2,4-triazol-3-yl)methyl)cyclobutyl)phenyl)-4-(((S)-2-isopropyl-4-methylpiperazin-1-yl)methyl)picolinamide] | 8.4 | (1.2x) | 7.1
13 | Cn1cnnc1CC1(c2cccc(NC(=O)c3cc(CN4CC(C)(O)C4)cc(C4CC4)n3)c2)CC(F)(F)C1 [Compound 495, 6-cyclopropyl-N-(3-(3,3-difluoro-1-((4-methyl-4H-1,2,4-triazol-3-yl)methyl)cyclobutyl)phenyl)-4-((3-hydroxy-3-methylazetidin-1-yl)methyl)picolinamide] | 12 | (0.68x) | 17
14 | Cn1cnnc1CC1(c2cccc(NC(=O)c3cc(CN4CC(C)(CO)C4)cc(C4CC4)n3)c2)CC(F)(F)C1 [Compound 496, 6-cyclopropyl-N-(3-(3,3-difluoro-1-((4-methyl-4H-1,2,4-triazol-3-yl)methyl)cyclobutyl)phenyl)-4-((3-(hydroxymethyl)-3-methylazetidin-1-yl)methyl)picolinamide] | 10 | (0.76x) | 13
15 | Cn1cnnc1[C@H](F)C1(c2cccc(NC(=O)c3cc(CN4CC(C)(CO)C4)cc(C4CC4)n3)c2)CC(F)(F)C1 [Compound 497, (R)-6-cyclopropyl-N-(3-(3,3-difluoro-1-(fluoro(4-methyl-4H-1,2,4-triazol-3-yl)methyl)cyclobutyl)phenyl)-4-((3-(hydroxymethyl)-3-methylazetidin-1-yl)methyl)picolinamide] | 33 | (0.95x) | 34
16 | CC(C)[C@H]1CN(C)CCN1Cc1cc(C(=O)Nc2cccc(C3(Cc4nncn4C)COC3)c2)nc(C2CC2)c1 [Compound 498, (S)-6-cyclopropyl-4-((2-isopropyl-4-methylpiperazin-1-yl)methyl)-N-(3-(3-((4-methyl-4H-1,2,4-triazol-3-yl)methyl)oxetan-3-yl)phenyl)picolinamide] | 6.2 | (0.62x) | 10
17 | CC(C)[C@H]1CN(C)CCN1Cc1cc(C(=O)Nc2cccc(C3([C@@H](F)c4nncn4C)COC3)c2)nc(C2CC2)c1 [Compound 499, 6-cyclopropyl-N-(3-(3-((R)-fluoro(4-methyl-4H-1,2,4-triazol-3-yl)methyl)oxetan-3-yl)phenyl)-4-(((S)-2-isopropyl-4-methylpiperazin-1-yl)methyl)picolinamide] | 7 | (0.63x) | 11
18 | CC(C)[C@H]1CN(C)CCN1Cc1cc(C(=O)Nc2cccc(C3([C@H](F)c4nncn4C)COC3)c2)nc(C2CC2)c1 [Compound 500, 6-cyclopropyl-N-(3-(3-((S)-fluoro(4-methyl-4H-1,2,4-triazol-3-yl)methyl)oxetan-3-yl)phenyl)-4-(((S)-2-isopropyl-4-methylpiperazin-1-yl)methyl)picolinamide] | 8 | (0.82x) | 9.9
19 | Cn1cnnc1[C@H](F)[C@@]1(c2cccc(NC(=O)c3cccc(C(F)(F)F)n3)c2)CCO1 [Compound 501, N-(3-((S)-2-((S)-fluoro(4-methyl-4H-1,2,4-triazol-3-yl)methyl)oxetan-2-yl)phenyl)-6-(trifluoromethyl)picolinamide] | 17000 | (1.1x) | 15000
20 | Cn1cnnc1[C@@H](F)[C@@]1(c2cccc(NC(=O)c3cccc(C(F)(F)F)n3)c2)CCO1 [Compound 502, N-(3-((S)-2-((R)-fluoro(4-methyl-4H-1,2,4-triazol-3-yl)methyl)oxetan-2-yl)phenyl)-6-(trifluoromethyl)picolinamide] | 20000 | (1.0x) | 20000
